{
  "source": "patent US12049486B2",
  "about": "“PAC1 receptor agonists (MAXCAPs) and uses thereof” (priority 2017, dated 2024)",
  "experiment": "Hepatic fat / liver cirrhosis, NASH/NAFLD by H&E staining in DIO WT mice",
  "type": "in vivo",
  "conditions": "versus vehicle",
  "description": "We have shown that these novel MAXCAP compounds, that are PAC1 specific agonists, can potentially treat Nonalcoholic steatohepatitis (NASH), non-alcoholic […] (NAFLD) and liver fibrosis. We injected these MAXCAP compounds in DIO WT mice and measured hepatic fat in the liver (see, e.g., FIG. 5).",
  "note": "Where no end group is shown, it is not given here.",
  "data": [
    {"substance": "Pituitary Adenylate Cyclase Activating Polypeptide (HSDGIFTDSYSRYRKQMAVKKYLAAVLGKRYKQRVKNK; ends and bridges not checked; listed as Homo sapiens) [PACAP, native peptide]", "values": [
      {"measurement": "liver cirrhosis and NASH/NAFLD", "value": "significant reduction in liver cirrhosis and NASH/NAFLD"}
    ]}
  ]
}
